Measurements from patent publication US7956060B2, “Pyrimidine derivative compound” (Kyowa Hakko Kirin Co., Ltd., priority 2004, dated 2011).

System: human acute myeloid leukemia cell line MV-4-11
Experiment: Cytostatic activity on leukemia cell line (WST-1 assay)
Assay type: cell-based
Conditions: MV-4-11 cells, test compound 10 μmol/L, 72 hours
Protocol: The cytostatic rate (%) of a test compound on human acute myeloid leukemia cell line MV-4-11 was determined in the following manner.
Each cell was cultured using Roswell Park Memorial Institute's Medium (RPMI) 1640 (Gibco, Catalog No. 11875-093) containing 10% fetal bovine serum (Gibco, Catalog. No. 10437-028) and 1% penicillin/streptomycin (1:1) (Gibco, Catalog No. 15140-122). Each 80 μL of the MV-4-11 cell having a concentration of 7.5×10^4 cells/mL (or K562 cell having a concentration of 2.5×10^4 cells/mL) was inoculated to wells of a TC MICROWELL 96U plate (Nalge Nunc International, Catalog No. 163320) and was cultured in a 5% carbon dioxide gas incubator at 37° C. for 4 hours. As a blank, only RPMI medium (80 μL) was added to a well. […] Then, the absorbances at 450 nm (reference wavelength: 690 nm) were determined with a microplate spectrophotometer SPECTRA max 340PC (Molecular Devices Corporation). The relative growth (%) of a well to which the test compound had been added was determined while setting the absorbance of a well to which not the test compound but DMSO alone had been added (control) at 100% and that of a well containing RPMI medium alone at 0%. The cytostatic rate (%) of the test compound was determined by subtracting the calculated relative growth from 100.

For `CCNc1nc(NCCc2ccncc2)ncc1-c1nnc(CN2CCN(C)CC2)o1` [Compound 4-32], the “cytostatic rate MV-4-11 (%, 10 μmol/L)” value was 99%.
